Experimental data reported in ChEMBL document CHEMBL4334516, “Kinase Chemodiversity from the Arctic: The Breitfussins” (J Med Chem, 2019).

What was measured:
[1] = target: Citron Rho-interacting kinase (Homo sapiens, UniProt O14578); assay: Binding affinity to wild-type human partial length CIT (M68 to E432 residues) expressed in bacterial expression system by active-site directed competition binding assay based Kinomescan method
[2] = target: Sodium-dependent noradrenaline transporter (Homo sapiens, UniProt P23975); assay: Inhibition of [3H]nisoxetine binding to human recombinant NET incubated for 120 mins by scintillation counting method; settings: 2 h
Chain of Sodium-dependent noradrenaline transporter (P23975 whole entry, the tested form may be a part): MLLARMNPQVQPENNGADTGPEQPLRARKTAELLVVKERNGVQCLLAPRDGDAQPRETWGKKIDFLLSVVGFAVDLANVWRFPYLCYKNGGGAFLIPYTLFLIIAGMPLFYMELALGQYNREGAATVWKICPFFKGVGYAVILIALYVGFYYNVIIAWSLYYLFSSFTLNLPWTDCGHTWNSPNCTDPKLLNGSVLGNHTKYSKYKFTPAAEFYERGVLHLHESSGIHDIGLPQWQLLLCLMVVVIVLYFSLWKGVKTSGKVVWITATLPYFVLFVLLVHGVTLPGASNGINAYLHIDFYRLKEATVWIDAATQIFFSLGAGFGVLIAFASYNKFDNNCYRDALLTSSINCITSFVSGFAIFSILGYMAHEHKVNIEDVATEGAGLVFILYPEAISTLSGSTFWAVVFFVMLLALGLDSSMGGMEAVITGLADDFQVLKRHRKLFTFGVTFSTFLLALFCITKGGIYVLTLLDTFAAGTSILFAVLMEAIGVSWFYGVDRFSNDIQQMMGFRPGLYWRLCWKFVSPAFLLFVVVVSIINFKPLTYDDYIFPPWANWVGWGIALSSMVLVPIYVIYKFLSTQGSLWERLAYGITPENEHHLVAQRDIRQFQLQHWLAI

[3] = target: Cyclin-G-associated kinase (Homo sapiens, UniProt O14976); assay: Binding affinity to wild-type human partial length GAK (G13 to Y338 residues) expressed in bacterial expression system by active-site directed competition binding assay based Kinomescan method
Chain of Cyclin-G-associated kinase (O14976 whole entry, the tested form may be a part): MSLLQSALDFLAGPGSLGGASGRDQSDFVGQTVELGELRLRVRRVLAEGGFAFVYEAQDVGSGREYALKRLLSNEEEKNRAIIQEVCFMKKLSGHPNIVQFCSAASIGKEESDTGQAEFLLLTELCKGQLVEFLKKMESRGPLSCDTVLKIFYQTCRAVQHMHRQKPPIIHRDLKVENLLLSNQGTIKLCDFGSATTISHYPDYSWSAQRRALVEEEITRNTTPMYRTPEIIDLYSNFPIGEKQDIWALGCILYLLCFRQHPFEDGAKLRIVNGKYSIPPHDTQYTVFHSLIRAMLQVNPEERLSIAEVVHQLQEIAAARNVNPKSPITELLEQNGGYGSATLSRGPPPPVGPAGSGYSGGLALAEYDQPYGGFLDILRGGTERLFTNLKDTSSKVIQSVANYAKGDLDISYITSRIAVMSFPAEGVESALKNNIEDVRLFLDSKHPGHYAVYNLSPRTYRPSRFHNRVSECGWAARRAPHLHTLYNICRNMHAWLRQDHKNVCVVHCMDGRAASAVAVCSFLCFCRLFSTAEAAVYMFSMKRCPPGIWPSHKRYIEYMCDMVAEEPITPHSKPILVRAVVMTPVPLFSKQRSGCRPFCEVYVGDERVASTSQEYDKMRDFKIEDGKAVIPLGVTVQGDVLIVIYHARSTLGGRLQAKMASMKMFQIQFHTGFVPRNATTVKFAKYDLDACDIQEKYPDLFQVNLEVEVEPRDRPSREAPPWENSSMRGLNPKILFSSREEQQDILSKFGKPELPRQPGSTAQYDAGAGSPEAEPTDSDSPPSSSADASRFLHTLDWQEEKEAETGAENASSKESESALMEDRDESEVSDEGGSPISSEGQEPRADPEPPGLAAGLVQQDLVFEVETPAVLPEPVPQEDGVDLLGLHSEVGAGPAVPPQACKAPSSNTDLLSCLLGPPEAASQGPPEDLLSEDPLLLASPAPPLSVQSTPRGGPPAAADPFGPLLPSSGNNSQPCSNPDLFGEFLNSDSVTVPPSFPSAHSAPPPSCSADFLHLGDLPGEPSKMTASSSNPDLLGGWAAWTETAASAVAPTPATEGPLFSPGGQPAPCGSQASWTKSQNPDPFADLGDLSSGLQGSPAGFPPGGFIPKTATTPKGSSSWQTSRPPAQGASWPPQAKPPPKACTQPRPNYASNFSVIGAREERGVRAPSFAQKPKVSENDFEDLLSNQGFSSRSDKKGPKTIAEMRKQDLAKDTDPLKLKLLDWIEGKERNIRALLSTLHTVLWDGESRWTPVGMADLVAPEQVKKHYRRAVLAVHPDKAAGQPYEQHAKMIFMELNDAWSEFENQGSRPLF

[4] = Stability in human liver microsomes supplemented with UDP-glucuronic acid assessed as parent compound remaining level at 5 uM incubated for 1 hr by LC-MS analysis; format: ADME, Microsome; settings: read-out: Stability
[5] = target: T1, Mitogen-activated protein kinase kinase kinase kinase 2 (Homo sapiens) (UniProt Q12851); assay: Binding affinity to wild-type human partial length GCK (M1 to G318 residues) expressed in mammalian expression system assessed as residual binding level at 10 uM by active-site directed competition binding assay based Kinomescan method relative to control
T1 sequence (whole entry): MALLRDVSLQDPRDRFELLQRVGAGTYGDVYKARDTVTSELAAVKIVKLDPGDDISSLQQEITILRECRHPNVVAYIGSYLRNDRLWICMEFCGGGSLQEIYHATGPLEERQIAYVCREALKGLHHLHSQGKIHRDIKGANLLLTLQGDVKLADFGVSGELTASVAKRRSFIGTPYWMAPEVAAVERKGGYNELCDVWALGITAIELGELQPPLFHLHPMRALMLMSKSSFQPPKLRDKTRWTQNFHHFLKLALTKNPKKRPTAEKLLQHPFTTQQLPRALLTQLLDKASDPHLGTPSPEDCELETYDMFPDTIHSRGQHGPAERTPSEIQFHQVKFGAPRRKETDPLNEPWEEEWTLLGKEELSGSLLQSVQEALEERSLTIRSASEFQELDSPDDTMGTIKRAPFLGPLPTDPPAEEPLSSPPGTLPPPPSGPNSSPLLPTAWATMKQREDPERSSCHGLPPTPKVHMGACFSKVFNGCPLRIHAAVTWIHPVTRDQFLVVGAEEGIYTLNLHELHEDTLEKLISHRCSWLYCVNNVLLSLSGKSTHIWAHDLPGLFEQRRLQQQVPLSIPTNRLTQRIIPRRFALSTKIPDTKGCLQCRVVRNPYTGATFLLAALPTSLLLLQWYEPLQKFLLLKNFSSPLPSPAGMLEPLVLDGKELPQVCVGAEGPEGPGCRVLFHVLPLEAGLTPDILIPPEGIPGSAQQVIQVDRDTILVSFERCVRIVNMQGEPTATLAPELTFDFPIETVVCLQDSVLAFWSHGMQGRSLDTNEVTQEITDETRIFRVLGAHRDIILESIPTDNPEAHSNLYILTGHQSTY

[6] = target: Casein kinase I isoform epsilon (Homo sapiens, UniProt P49674); assay: Binding affinity to wild-type human full length CSNK1E (M1 to K416 residues) expressed in bacterial expression system by active-site directed competition binding assay based Kinomescan method
Chain of Casein kinase I isoform epsilon (P49674 whole entry, the tested form may be a part, canonical isoform): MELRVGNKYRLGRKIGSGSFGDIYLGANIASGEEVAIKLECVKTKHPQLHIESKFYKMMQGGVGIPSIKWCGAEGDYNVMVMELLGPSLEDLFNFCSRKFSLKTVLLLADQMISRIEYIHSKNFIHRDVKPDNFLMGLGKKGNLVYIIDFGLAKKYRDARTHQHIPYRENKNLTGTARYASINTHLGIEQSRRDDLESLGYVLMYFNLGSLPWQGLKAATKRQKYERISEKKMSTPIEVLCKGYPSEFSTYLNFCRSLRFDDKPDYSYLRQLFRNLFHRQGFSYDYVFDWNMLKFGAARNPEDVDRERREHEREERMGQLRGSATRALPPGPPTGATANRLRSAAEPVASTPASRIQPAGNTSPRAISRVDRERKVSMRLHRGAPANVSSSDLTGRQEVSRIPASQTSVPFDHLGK

[7] = target: T1, Mitogen-activated protein kinase kinase kinase kinase 2 (Homo sapiens); assay: Inhibition of GCK (unknown origin) assessed as residual enzyme activity at 1 uM by [33P]-ATP filter binding kinase assay relative to control
[8] = target: Serine/threonine-protein kinase pim-1 (Homo sapiens, UniProt P11309); assay: Inhibition of PIM1 (unknown origin) assessed as residual enzyme activity at 1 uM by [33P]-ATP filter binding kinase assay relative to control
Chain of Serine/threonine-protein kinase pim-1 (P11309 whole entry, looked up): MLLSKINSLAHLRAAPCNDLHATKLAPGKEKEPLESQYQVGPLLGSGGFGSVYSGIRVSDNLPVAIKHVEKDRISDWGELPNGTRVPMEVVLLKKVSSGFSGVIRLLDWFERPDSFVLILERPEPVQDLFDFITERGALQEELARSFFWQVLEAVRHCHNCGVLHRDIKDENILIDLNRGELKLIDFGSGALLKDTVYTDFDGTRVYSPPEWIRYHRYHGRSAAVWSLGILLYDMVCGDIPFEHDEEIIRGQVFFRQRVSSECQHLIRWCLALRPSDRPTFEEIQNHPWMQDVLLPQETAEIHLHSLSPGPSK

Chain of Citron Rho-interacting kinase (O14578 whole entry, the tested form may be a part): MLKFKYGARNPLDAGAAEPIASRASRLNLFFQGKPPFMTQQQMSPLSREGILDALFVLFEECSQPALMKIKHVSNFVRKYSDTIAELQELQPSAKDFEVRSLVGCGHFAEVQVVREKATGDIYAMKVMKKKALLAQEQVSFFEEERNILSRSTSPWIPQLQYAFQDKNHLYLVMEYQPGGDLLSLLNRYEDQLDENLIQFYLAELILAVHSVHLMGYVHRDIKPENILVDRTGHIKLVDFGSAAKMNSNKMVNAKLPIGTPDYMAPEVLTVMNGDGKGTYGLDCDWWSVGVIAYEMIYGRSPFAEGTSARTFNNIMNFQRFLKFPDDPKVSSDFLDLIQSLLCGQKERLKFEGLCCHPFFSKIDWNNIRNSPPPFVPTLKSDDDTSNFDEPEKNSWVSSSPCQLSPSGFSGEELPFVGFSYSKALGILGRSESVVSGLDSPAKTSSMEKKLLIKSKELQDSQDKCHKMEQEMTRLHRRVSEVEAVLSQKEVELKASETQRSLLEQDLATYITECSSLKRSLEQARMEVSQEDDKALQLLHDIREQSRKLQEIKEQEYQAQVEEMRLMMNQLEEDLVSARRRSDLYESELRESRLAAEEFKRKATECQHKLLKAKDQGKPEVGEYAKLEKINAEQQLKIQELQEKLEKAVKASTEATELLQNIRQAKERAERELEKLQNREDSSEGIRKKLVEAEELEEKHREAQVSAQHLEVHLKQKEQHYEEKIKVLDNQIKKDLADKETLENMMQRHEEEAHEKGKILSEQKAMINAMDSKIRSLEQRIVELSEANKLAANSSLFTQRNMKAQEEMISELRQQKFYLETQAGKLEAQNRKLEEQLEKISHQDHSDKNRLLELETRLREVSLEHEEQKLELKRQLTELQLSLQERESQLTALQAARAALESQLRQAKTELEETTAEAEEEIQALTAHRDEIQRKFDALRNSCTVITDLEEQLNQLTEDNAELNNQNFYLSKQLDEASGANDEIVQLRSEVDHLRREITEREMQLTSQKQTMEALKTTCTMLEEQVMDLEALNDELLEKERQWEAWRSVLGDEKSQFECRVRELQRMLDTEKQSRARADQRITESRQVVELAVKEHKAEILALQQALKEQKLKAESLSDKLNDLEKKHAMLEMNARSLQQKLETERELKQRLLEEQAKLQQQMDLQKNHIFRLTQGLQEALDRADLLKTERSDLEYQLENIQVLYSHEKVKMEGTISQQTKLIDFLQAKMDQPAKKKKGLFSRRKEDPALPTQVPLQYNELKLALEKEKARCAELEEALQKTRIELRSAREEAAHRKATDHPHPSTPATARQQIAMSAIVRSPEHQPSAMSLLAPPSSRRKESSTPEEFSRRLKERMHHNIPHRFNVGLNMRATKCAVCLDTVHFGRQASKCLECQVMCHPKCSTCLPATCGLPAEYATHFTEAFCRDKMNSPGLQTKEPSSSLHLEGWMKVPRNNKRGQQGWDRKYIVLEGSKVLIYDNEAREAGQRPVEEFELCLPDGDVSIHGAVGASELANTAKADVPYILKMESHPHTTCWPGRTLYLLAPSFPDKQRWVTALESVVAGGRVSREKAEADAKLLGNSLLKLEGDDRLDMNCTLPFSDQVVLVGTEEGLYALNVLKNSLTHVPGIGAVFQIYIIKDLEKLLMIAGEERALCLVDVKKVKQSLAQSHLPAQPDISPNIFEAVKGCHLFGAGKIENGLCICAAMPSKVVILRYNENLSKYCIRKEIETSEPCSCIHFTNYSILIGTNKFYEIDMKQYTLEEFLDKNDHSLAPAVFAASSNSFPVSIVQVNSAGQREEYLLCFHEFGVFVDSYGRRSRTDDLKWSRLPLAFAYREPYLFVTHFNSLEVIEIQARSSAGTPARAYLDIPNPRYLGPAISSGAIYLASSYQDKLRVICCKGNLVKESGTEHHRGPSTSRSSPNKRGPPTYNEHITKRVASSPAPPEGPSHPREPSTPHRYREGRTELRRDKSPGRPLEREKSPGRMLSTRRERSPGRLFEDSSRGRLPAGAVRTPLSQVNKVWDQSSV

COc1cc2c(-c3cnc(-c4ccc[nH]4)o3)c[nH]c2cc1Br
Kd [1]: 2700 nM
inhibition (INH) [2]: Active
Kd [3]: 440 nM
remaining at 1 h, 5 µM [4]: 92%
Activity [5]: 72%
Kd [6]: 3300 nM
Activity [7]: 31%
Activity [8]: 6%
